{"source": "patent US11484543B2", "about": "“Compositions and methods for diagnosing and treating diseases and disorders associated with mutant KCNJ5” (The Rockefeller University, priority 2017, dated 2022)", "molecular_target": "T1, KCNJ3/KCNJ5^WT (Homo sapiens, UniProt P48544)", "T1 construct": "GFP; expressed in transfected cells; host or cells: HEK293T (American Type Culture Collection), transient co-transfection", "T1 sequence (P48544 1-419)": "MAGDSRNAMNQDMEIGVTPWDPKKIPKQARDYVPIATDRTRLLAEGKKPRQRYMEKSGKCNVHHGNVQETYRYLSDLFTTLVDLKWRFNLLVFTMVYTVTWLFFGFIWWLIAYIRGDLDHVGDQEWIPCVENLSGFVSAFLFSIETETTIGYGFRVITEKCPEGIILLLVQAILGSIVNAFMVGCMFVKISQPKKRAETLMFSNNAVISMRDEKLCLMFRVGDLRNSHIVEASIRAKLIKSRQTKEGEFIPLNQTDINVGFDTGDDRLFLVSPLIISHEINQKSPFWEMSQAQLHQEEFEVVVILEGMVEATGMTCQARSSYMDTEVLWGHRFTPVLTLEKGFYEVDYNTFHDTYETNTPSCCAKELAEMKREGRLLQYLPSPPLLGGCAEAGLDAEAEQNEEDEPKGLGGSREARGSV", "T1 sequence (P48549 1-501 partner)": "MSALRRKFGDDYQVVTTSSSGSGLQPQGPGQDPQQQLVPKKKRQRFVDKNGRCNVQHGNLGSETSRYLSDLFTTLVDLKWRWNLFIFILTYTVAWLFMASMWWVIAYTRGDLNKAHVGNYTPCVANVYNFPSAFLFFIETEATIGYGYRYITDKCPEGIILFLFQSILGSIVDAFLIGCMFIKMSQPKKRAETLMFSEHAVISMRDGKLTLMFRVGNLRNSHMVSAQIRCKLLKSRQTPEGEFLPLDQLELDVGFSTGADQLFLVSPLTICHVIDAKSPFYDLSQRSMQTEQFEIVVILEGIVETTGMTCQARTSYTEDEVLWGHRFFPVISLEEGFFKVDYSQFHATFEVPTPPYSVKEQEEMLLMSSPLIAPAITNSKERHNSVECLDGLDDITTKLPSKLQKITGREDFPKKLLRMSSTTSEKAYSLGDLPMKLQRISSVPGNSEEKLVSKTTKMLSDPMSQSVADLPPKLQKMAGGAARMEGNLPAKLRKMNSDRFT", "assay": "Perforated whole-cell patch clamp, KCNJ3/KCNJ5^WT heterotetramers in HEK293T cells", "type": "cell-based", "conditions": "20 μM, 10 minutes after addition", "protocol": "HEK293T cells (American Type Culture Collection) were used for transient expression of GFP-tagged KCNJ5 or KCNJ3. The cells were grown in Dulbecco's modified Eagle medium (DMEM; Invitrogen) supplemented with 10% FBS (Invitrogen) in 5% CO2 and 95% air at 37° C. Cells were grown to 50-70% confluence for transfection, and the corresponding cDNAs (Choi et al., 2011, Science 331:768-772) were simultaneously applied to the cells using TurboFect transfection reagent according to the manufacturer's protocol (Fermentas). […]\nWithin 24 hr after transfection, the cells were treated with trypsin-containing medium (TrypLE Express) (Gibco) for 10 minutes to detach the cells. […] Fluorescence signal (an indication of positive transfection) was detected with an intensified video imaging system including a SIT 68 camera (Long Island Industries). […] After forming a high resistance seal (>2 GΩ), the membrane capacitance was monitored until the whole-cell patch configuration was formed. The cell membrane capacitance was measured and compensated. The K/cation currents were measured from −80 mV to 20 mV with 20 mV steps by an Axon 200A patch-clamp amplifier. The currents were low-pass filtered at 1 KHz and digitized by an Axon interface (Digidata 1200) and were analyzed using the pClamp software system 9 (Axon). […]", "data": [{"smiles": "CC[C@H]1OC(=O)[C@H](C)[C@@H](O[C@H]2C[C@@](C)(OC)[C@@H](O)[C@H](C)O2)[C@H](C)[C@@H](O[C@@H]2O[C@H](C)C[C@H](N(C)C)[C@H]2O)[C@](C)(O)C[C@@H](C)/C(=N\\OCOCCOC)[C@H](C)[C@@H](O)[C@]1(C)O", "note": "[Roxithromycin, roxithromycin]", "values": [{"measurement": "inhibition of potassium currents in KCNJ3/KCNJ5^WT channels", "result": "no inhibition"}]}]}
